The test system of assay [1] is U34 enzymes. In words: Dual luciferase (NanoLuc/Firefly) tRNA modification-sensitive codon translation assay in A549 cells. Type of assay: cell-based. Conditions: A549 human lung cells; time and concentration series; six U34 codon (xAA) repeats upstream of NanoLuc, xAG upstream of FireflyLuc; FIG. 1g-h. As to the method: (§1) In the preferred embodiment, the luminescence-based reporter system is the Nano-Glo® Dual-Luciferase® Reporter (NanoDLR™) Assay System commercially available from Promega. The medium may be removed and 40 microliters of complete cell culture medium may be added. The plate may be equilibrated at room temperature for 15 min. 40 microliters of ONE-Glo™ EX Reagent may be added for each well. The plates may be mixed and shaked and protected from light for 10 minutes. Then the luminescence may be read. 40 microliters of NanoDLR™ Stop and GloR Reagent may be freshly prepared and added to each well. The plates may be mixed and shaked and protected from light for 10 minutes. The luminescence may be read by any luminescence reader, preferably. The luminescence may be analyzed by calculating the Nanoluc/Firefly ratio.
(§2) Cells (MDA-MB231, M395 or A549) were stably transduced by the lentiviral system (pLV-Puro-hPGK) and 1:3 Mirus transfecting agent [Close et al, Mol Cell 2006].
(§3) Cells were culture in a suitable culture system in the presence of the candidate tRNA modification modulator.
(§4) Signals were detected by any luminescence reader, for example the TECAN Infinite M2000 Pro. Read time can be between 1 and 3 seconds with automatic attenuation.
(§5) No effect was seen using a construct lacking the codon repetitions (FIG. 1e). […]

Assay [2] concerns U34 enzymes. In words: Dual luciferase (NanoLuc/Firefly) tRNA modification-sensitive codon translation assay in M395 cells. The assay is classed as cell-based. Conditions: M395 human primary melanoma cells; 250 nM for 24 hours; six U34 codon (xAA) repeats upstream of NanoLuc, xAG upstream of FireflyLuc; FIG. 1f. As to the method: as §1, §2, §3, §4, §5

Entries after “also recorded” stand apart in the source; their conditions may differ.

As to `CC(C)n1nc(-c2cc3cc(O)ccc3[nH]2)c2c(N)ncnc21` [PP242], the luciferase specific signal entry in assay [1] is “decreased luciferase specific signal in a time and concentration-dependent manner; also recorded: decreased luciferase specific signal in a time and concentration dependent manner”. For the molecule insulin, the “luciferase specific ratio (NanoLuc/Firefly)” value in assay [2] was “increased luciferase specific ratio”. On to `Cn1c(=O)n(-c2ccc(C(C)(C)C#N)cc2)c2c3cc(-c4cnc5ccccc5c4)ccc3ncc21` [NVP-BEZ235], for which the luciferase specific signal entry in assay [1] was “decreased luciferase specific signal in a time and concentration-dependent manner; also recorded: decreased luciferase specific signal in a time and concentration dependent manner”.
